Our source for the IC50 values is patent publication US5763577A, “Substituted tetra- and pentapeptide inhibitors of protein: farnesyl transferase” (Warner-Lambert Company, priority 1996, dated 1998).

By IC50 is commonly meant the concentration that gives 50% inhibition. Low readings indicate higher potency, high ones lower potency.

Where a name gives a salt, the structure may show the parent alone. Non-standard residues stand in square brackets, D forms with d. Residues, ends and D or L forms follow the SMILES beside them. *: point of attachment. Cbz = O=C(OCc1ccccc1)*; Bn = c1ccc(C*)cc1

In this assay the target is T1, rat brain farnesyl protein transferase (Rattus norvegicus, UniProt Q02293+Q04631).
T1 construct: 40-fold purified rat brain farnesyl protein transferase; from tissue; host or cells: rat brain
The assay can be described thus: PFT inhibitory activity assay (3H-farnesyl pyrophosphate, biotinyl peptide, streptavidin beads). In kind it is biochemical. Conditions: 30 mM potassium phosphate buffer pH 7.4; FPP 0.12 μM; (biotinyl)-Ahe-Tyr-Lys-Cys-Val-Ile-Met 0.1 μM; 37° C, 30 minutes. The method, then:
The PFT inhibitory activity of compounds of Formula I was assayed in 30 mM potassium phosphate buffer, pH 7.4, containing 7 mM DTT, 1.2 MM MgCl2, 0.1 mM leupeptin, 0.1 mM pepstatin, and 0.2 mM phenylmethylsulfonyl fluoride. Assays were performed in 96 well plates (Wallec) and employed solutions composed of varying concentrations of a compound of Formula I in 100% DMSO. Upon addition of both substrates, radiolabeled farnesyl pyrophosphate ([1-^3 H], specific activity 15-30 Ci/mmol, final concentration 0.12 μM) and (biotinyl)-Ahe-Tyr-Lys-Cys-Val-Ile-Met peptide (final concentration 0.1 μM), the Seq ID NO:59 enzyme reaction was started by addition of 40-fold purified rat brain farnesyl protein transferase. After incubation at 37° C for 30 minutes, the reaction was terminated by diluting the reaction 2.5-fold with a stop buffer containing 1.5M magnesium acetate, 0.2M H3 PO4, 0.5% BSA, and strepavidin beads (Amersham) at a concentration of 1.3 mg/mL. After allowing the plate to settle for 30 minutes at room temperature, radioactivity was quantitated on a microBeta counter (model 1450, Wallec).

In the case of `C[C@@H](NC(=O)[C@H](COCc1ccccc1)NC(=O)[C@H](Cc1ccc(OCc2ccccc2)cc1)NC(=O)[C@H](Cc1c[nH]cn1)NC(=O)OCc1ccccc1)C(=O)O` [Cbz--His--Tyr(OBn)--Ser(OBn)--DAla--OH, N-[N-[N-[N-[(Phenylmethoxy)carbonyl]-L-histidyl]-O-(phenylmethyl)-L-tyrosyl]-O-(phenylmethyl)-L-seryl]-D-alanine, monohydrochloride] (Cbz-HY(Bn)S(Bn)[dA]-OH), the IC50 was 404 nM.
In the case of `COC(=O)[C@@H](C)NC(=O)[C@H](COCc1ccccc1)NC(=O)[C@H](Cc1ccc(OCc2ccccc2)cc1)NC(=O)[C@H](Cc1c[nH]cn1)NC(=O)OCc1ccccc1` [Cbz--His--Tyr(OBn)--Ser(OBn)--DAla--OM2, N-[N-[N-[N-[(Phenylmethoxy)carbonyl]-L-histidyl]-O-(phenylmethyl)-L-tyrosyl]-O-(phenylmethyl)-L-seryl]-D-alanine, methyl ester] (Cbz-HY(Bn)S(Bn)[dA]-OMe), the IC50 amounted to 142 nM.
